# Source: patent publication US9243247B2, “Composition for promoting apoptosis or inhibiting cell growth, comprising epstein-barr virus microrna” (Catholic University Industry Academic Cooperation Foundation, priority 2011, dated 2016)
# Tests used:
# Format in all cases: cell-based
# AGS cell strain [1] = test: Cell growth test (CCK-8 assay) after transfection of BART miRNA mimics; conditions: 72 hours after transfection; for Relative Cell Growth: mimic 10 nM, relative to scrambled control (=1)
# Description: An AGS cell strain (Korean Cell Line Bank), which is a stomach cancer cell strain, was cultured in an RPMI1640 (Gibco) culture medium including 10% fetal bovine serum. Mature type synthesized BART miRNAs were transfected to the AGS cell strain by using G-fectin (Genolution) according to a protocol of the manufacture.
# To investigate the effect of individual EBV BART miRNAs on the AGS cell strain, the synthesized miRNAs were transfected to the AGS cell strain and, after 72 hours, cells were counted by CCK-8 assay.
# Immediately after the AGS cell strain, which is an EBV-negative cell strain, was divided into 96-well plate having 1×10^3 cells/well, a synthesized miRNA (10 nM) was transfected by using G-fectin. After the transfection, according to the experimental objective, the cells were cultured at 37° C. in an incubator, and then CCK-8 was divided among the wells by allocating 10 μl of CCK-8 to each well and the resulting mixture was cultured in an incubator at 37° C. for two hours. Then, the light absorbance was measured with an ELISA measuring instrument.
# By the method described in Example 3, miR-BART5-5p mimic or miR-BART15-3p mimic (10 nM) were transfected to the AGS cell strain, and the effect thereof on cell growth was investigated over time.
# miR-BART5-5p, miR-BART15-3p, and miR-BART20-3p were transfected to the AGS cell strain (1×10^3 cells/well) in a concentration of 1, 3, 10, and 30 nM, and the effect on cell growth was investigated. Immediately after the AGS cell strain was divided into a 96-well plate such that 1×10^3 AGS cells were allocated to each well, a synthesized miRNA was transfected by using G-fectin. Seventy two hours after the transfection, CCK-8 was divided among the wells by allocating 10 μl of CCK-8 to each well, and the resulting mixture was cultured at 37° C. in an incubator for two hours.
# AGS cell strain [2] = test: Effect on cell cycle (propidium iodide staining, FACS, sub G1); conditions: mimic 10 nM, 10 uM 5-FU 24 h after transfection, then 48 hours, relative to scrambled control (=1)
# Description: The AGS cells were divided into a 96-well plate such that 2×10^5 AGS cells were allocated to each well, and synthesized miRNAs (10 nM) were transfected and cultured at 37° C. in an incubator. Twenty four hours after the transfection, 10 uM of 5-FU, which is an anti-cancer agent, was treated in one case or not treated in another case, and then the resulting mixture was cultured in an incubator at 37° C. for 48 hours. The cells were detached by using Trypsin-EDTA and washed with PBS two times.
# Immediately after the AGS cell strains, which are EBV-negative cell strains, were divided into a 6-well plate such that 2×10^5 AGS cells were allocated to each well, a synthesized miRNA (10 nM) was transfected by using G-fectin and cultured at 37° C. in an incubator. Twenty four hours after the transfection, 10 uM of 5-FU was treated and the resulting mixture was cultured at 37° C. in an incubator for 48 hours. The cells were detached by using Trypsin-EDTA and washed with PBS two times. Afterwards, DNA was stained by propidium iodide staining and the ratio of cells where cell cycle was changed was investigated by FACS.
# AGS cell strain [3] = test: Measurement of apoptosis (Annexin V staining, FACS); conditions: for Relative Apoptotic cell: AGS, mimic 10 nM, 10 uM 5-FU 24 h after transfection, then 48 hours, Annexin V, relative to scrambled control (=1), n=9; for effect on cell growth and apoptosis (summary statement): mimics transfected to AGS, tumor cell strain not infected with EBV
# Description: Immediately after the AGS cell strain, which is an EBV-negative cell strain, was divided was divided into a 6-well plate such that 2×10^5 AGS cells were allocated to each well, a synthesized miRNA (10 nM) was transfected by using G-fectin and the resulting mixture was cultured at 37 t in an incubatorTwenty four hours after the transfection, 10 uM of 5-FU was treated and the resulting mixture was cultured in an incubator at 37° C. for 48 hours. The cells were detached by using Trypsin-EDTA and washed with PBS two times. Afterwards, the cells were treated with a PE Annexin V Apoptosis Detection Kit and the changed ratio of apoptotic cell was investigated by FACS (FIG. 7).
# Immediately after the AGS cell strain, which is an EBV-negative cell strain, is divided into a 6-well plate such that 2×10^5 AGS cells were allocated to each well, a synthesized miRNA (10 nM) was transfected by using G-fectin and the resulting mixture was cultured at 37° C. Twenty four hours after the transfection, 10 uM of 5-FU, which is an anti-cancer agent, was treated and the resulting mixture was cultured in an incubator at 37° C. for 48 hours. The cells were detached by using Trypsin-EDTA and washed with PBS two times. Afterwards, the cells were treated with a PE Annexin V Apoptosis Detection Kit and the ratio of cells where apoptosis took place was measured by FACS.
Substance,Relative Cell Growth (AGS cell strain [1]; n=9),Relative Sub G1 (AGS cell strain [2]),Relative Apoptotic cell (AGS cell strain [3]),effect on cell growth and apoptosis (summary statement) (AGS cell strain [3]),also measured
"BART14-3p: EBV BART miRNA mimic, double stranded RNA; sense SEQ NO: 83, antisense SEQ NO: 84 (sense UAAAUGCUGCAGUAGUAGGGAU; antisense AUCCCUACUACUGCAGCAUUUA; chemistry not given here)",1.447,0.8757,0.9426,–,–
"BART14-5p: EBV BART miRNA mimic, double stranded RNA; sense SEQ NO: 81, antisense SEQ NO: 82 (sense UACCCUACGCUGCCGAUUUACA; antisense UGUAAAUCGGCAGCGUAGGGUA; chemistry not given here)",1.408,0.9076,1.054,–,–
"BART15-5p: EBV BART miRNA mimic, double stranded RNA; sense SEQ NO: 13, antisense SEQ NO: 14 (sense AGGGAAACAUGACCACCUGAAGUC; antisense GACUUCAGGUGGUCAUGUUUCCCU; chemistry not given here)",0.9545,0.8195,1.022,–,–
"BART16-3p: EBV BART miRNA mimic, double stranded RNA; sense SEQ NO: 23, antisense SEQ NO: 24 (sense AUCACCACCCUCUAUCCAUAU; antisense AUAUGGAUAGAGGGUGGUGAU; chemistry not given here)",1.159,0.9852,1.37,inhibit cell growth and promote apoptosis,Relative Apoptotic cell (AGS cell strain [3]; listed as 16-3p): significantly higher
"BART16-5p: EBV BART miRNA mimic, double stranded RNA; sense SEQ NO: 21, antisense SEQ NO: 22 (sense UUAGAUAGAGUGGGUGUGUGCUCU; antisense AGAGCACACACCCACUCUAUCUAA; chemistry not given here)",0.705,1.182,1.312,inhibit cell growth and promote apoptosis,"Relative Cell Growth (AGS cell strain [1]; n=9, listed as miR-BART16-5p): inhibited cell growth; Relative Sub G1 (AGS cell strain [2]; listed as 16-5p): increased; Relative Apoptotic cell (AGS cell strain [3]; listed as 16-5p): significantly higher"
"BART17-3p: EBV BART miRNA mimic, double stranded RNA; sense SEQ NO: 27, antisense SEQ NO: 28 (sense UGUAUGCCUGGUGUCCCCUUAGU; antisense ACUAAGGGGACACCAGGCAUACA; chemistry not given here)",0.7865,1.067,1.088,inhibit cell growth and promote apoptosis,"Relative Cell Growth (AGS cell strain [1]; n=9, listed as miR-BART17-3p): inhibited cell growth; Relative Sub G1 (AGS cell strain [2]; listed as 17-3p): increased; Relative Apoptotic cell (AGS cell strain [3]; listed as 17-3p): significantly higher"
"BART17-5p: EBV BART miRNA mimic, double stranded RNA; sense SEQ NO: 25, antisense SEQ NO: 26 (sense UAAGAGGACGCAGGCAUACAAG; antisense CUUGUAUGCCUGCGUCCUCUUA; chemistry not given here)",0.9551,1.099,1.004,–,–
"BART18-3p: EBV BART miRNA mimic, double stranded RNA; sense SEQ NO: 39, antisense SEQ NO: 40 (sense UAUCGGAAGUUUGGGCUUCGUC; antisense GACGAAGCCCAAACUUCCGAUA; chemistry not given here)",1.393,0.9963,0.8705,–,–
"BART18-5p: EBV BART miRNA mimic, double stranded RNA; sense SEQ NO: 37, antisense SEQ NO: 38 (sense UCAAGUUCGCACUUCCUAUACA; antisense UGUAUAGGAAGUGCGAACUUGA; chemistry not given here)",1.395,0.9828,1.202,inhibit cell growth and promote apoptosis,Relative Apoptotic cell (AGS cell strain [3]; listed as 18-5p): significantly higher
"BART19-3p: EBV BART miRNA mimic, double stranded RNA; sense SEQ NO: 71, antisense SEQ NO: 72 (sense UUUUGUUUGCUUGGGAAUGCU; antisense AGCAUUCCCAAGCAAACAAAA; chemistry not given here)",1.237,1.244,0.9742,–,Relative Sub G1 (AGS cell strain [2]; listed as 19-3p): increased
"BART19-5p: EBV BART miRNA mimic, double stranded RNA; sense SEQ NO: 69, antisense SEQ NO: 70 (sense ACAUUCCCCGCAAACAUGACAUG; antisense CAUGUCAUGUUUGCGGGGAAUGU; chemistry not given here)",1.151,1.349,1.071,–,Relative Sub G1 (AGS cell strain [2]; listed as 19-5p): increased
"BART20-3p: EBV BART miRNA mimic, double stranded RNA; sense SEQ NO: 75, antisense SEQ NO: 76 (sense CAUGAAGGCACAGCCUGUUACC; antisense GGUAACAGGCUGUGCCUUCAUG; chemistry not given here)",0.8577,1.618,1.416,inhibit cell growth and promote apoptosis,"cell growth (AGS cell strain [1]; 30 nM): almost no cell growth; cell growth depending on mimic concentration (onset of inhibition) (AGS cell strain [1]; 1, 3, 10 and 30 nM): decreased cell growth, beginning at 10 nm; Relative Cell Growth (AGS cell strain [1]; n=9, listed as miR-BART20-3p): inhibited cell growth; Relative Sub G1 (AGS cell strain [2]; listed as 20-3p): increased; Relative Apoptotic cell (AGS cell strain [3]; listed as 20-3p): significantly higher"
